Like-named read-outs stand apart in the source and are kept apart here.
What was measured:
[1] = Identification of CYP450 isozymes in lignan metabolism, rat liver microsomes (no inhibitor / overall); type: in vitro ADME; settings: rat, 5 μM, pH 7.4
Protocol: (§1) The CYP450s involved in the metabolism of schisandrin, schisantherin A, deoxyshisandrin and γ-schisandrin in rat or human liver microsomes were confirmed by comparison of the metabolism ratio before and after the addition of selective inhibitors to CYP450 isozymes. […] The supernate was injected to HPLC-MS for analysis of the four lignans.

[2] = Pharmacokinetics of four lignans in rats after oral SC alcoholic extract; type: in vivo, rat; settings: for AUC(0-t) / Cmax / half-life / CL/F / MRT last / Tmax: Sprague-Dawley, rat, plasma, po, 1.5 g/kg/day, oral SC alcoholic extract 1.5 g/kg/day for 4 days, n = 5; for CL/F: read-out: CLz/F (converted); for MRT last: read-out: MRT(0−t); for Tmax: read-out: Tmax
Protocol: The pharmacokinetic profiles of four lignans were studied in ALI rat after multiple oral administrations of SC alcoholic extract at dose of 1.5 g/kg/day. After the ALI rat was established, SC alcoholic extract suspended in 0.5% sodium carboxymethyl cellulose was given to ALI rats and the control via oral gavage once a day for 4 consecutive days. Before the last dosing, rats were fasted for 12 h while water was taken freely. Blood samples were collected at 0, 0.25, 0.5, 1, 2, 3, 4, 6, 8, 12, 24, 36, and 48 h after the last dosing. A cannula was surgically placed into the jugular vein for collection of blood samples (about 0.1 mL) and blood loss compensation using sterile isotonic saline in the pharmacokinetic study. Plasma was separated by centrifugation and stored at −20°C until analysis. Plasma concentrations of the four lignans were quantified using HPLC-MS analysis developed according to the reported method (Wang et al., [2008]).
Data fitting and pharmacokinetic parameter calculations were carried out using the Winnolin software. Non-compartmental analysis was used to calculate the pharmacokinetic parameters. Parameters, such as AUC and MRT, were calculated using statistical moment method.

[3] = Transport across Caco-2 cell monolayer; type: in vitro ADME; settings: human, Caco-2
Protocol: Caco-2 cell (passage 38) was used in the transport experiments. Cells were seeded on polycarbonate filters (12 mm diameter, pore size […]) at 1 × 10^5/cm^2. The cell monolayer was formed 21 days post seeding when the transepithelial electrical resistance (TEER) was above 1,000 Ω• cm^2. Three concentration levels (5, 10, and 50 μM) were set for the four schisandra lignans in the study. After preincubation for 1 h at 37°C, the solution of the four lignans was respectively added to the apical (0.4 mL) or basolateral (0.6 mL) chamber for absorptive (AP → BL) and secretive (BL → AP) permeability test. At the specified timepoints (0.5, 1, 1.5 and 2 h), 50 μL samples (n = 3) were withdrawn from receiver chamber, and meanwhile, 50 μL fresh buffer was added. The four lignans were determined by HPLC-MS method.
The efflux rate (ER) was calculated by the formula ER = Papp (BL → AP)/Papp(AP → BL).

[4] = In situ hepatic perfusion of four lignans; type: in vivo, rat; settings: Sprague-Dawley, rat, perfusate, perfusate AUC(0−1h), n = 3
Protocol: (§2) In situ liver perfusion was performed similarly as the method described previously (Uraki et al., [2016]). […] The perfusate consisted of Krebs–Hensleit buffer (pH 7.4) containing sodium taurocholate (4.75 mg/L), 1% bovine serum albumin, and glucose (1.2 g/L) was oxygenated using carbogen, 95% O2/5% CO2. The perfusate at 37°C was infused into the portal vein at a flow rate of 30 mL/min in a recirculatory manner. After 10-min equilibration, four schisandra lignans were added to the reservoir (final concentration of 10 μM). Perfusate (0.5 mL) and bile samples were collected at 0, 10, 20, 30, 40, 50, and 60 min after the addition of lignans. The same volume of blank perfusion buffer was immediately added to the reservoir after collection of the perfusate samples. After hepatic perfusion, rat was sacrificed and liver was removed, blotted dry, and weighed.

rat liver = assay: In situ hepatic perfusion of four lignans; type: in vivo; settings: hepatic perfusion 60 min, 10 μM, n = 3
Protocol: as §2

[5] = Identification of CYP450 isozymes in lignan metabolism, human liver microsomes (no inhibitor); type: in vitro ADME; settings: human, 5 μM, pH 7.4
Protocol: as §1

[6] = tested on: rat intestine (jejunum segment); assay: In situ intestinal perfusion of four lignans; type: in vivo; settings: for Perfusate (Percent of the initial dose) / Plasma (Percent of the initial dose) / Intestine (Percent of the initial dose) / Pblood / Plumen: 50 μM, n = 3; for Perfusate (Percent of the initial dose): intestinal perfusion 60 min; for Plasma (Percent of the initial dose) / Intestine (Percent of the initial dose): intestinal perfusion; for Plasma (Percent of the initial dose): mesenteric vein blood
Protocol: The surgical procedures of intestinal perfusion were conducted according to those published reports (Savina et al., [1981]). Hank's balanced salt solution (HBSS, pH 7.4) with four schisandra lignans (50 μM) at 37°C was infused into the jejunum segment at rate of 0.3 mL/min. Phenol Red (50 μM) was added to serve as a nonabsorbable marker for measuring water flux. Blood samples from mesenteric vein and perfusate were collected at 5-min interval. The plasma separated by centrifugation and perfusate was stored at −20°C until HPLC-MS analysis.
The permeability of four lignans across the rat intestine was calculated based on the disappearance of parent drug from the lumen (Plumen) as well as the appearance of the drug in blood (Pblood) using the following equations (Singhal et al., [1998]):
(1) Plumen = −Q/2πrlLnCout/Cin
(1) Pblood = ΔMB/Δt/2πrl{C}
where r is the radius of the perfused intestinal lumen; l is the length of the segment; Q is the flow rate of perfusate; Cin is the concentration of drug at the start of perfusion; and Cout is the steady-state concentration of drug exiting the lumen. ΔMB/Δt is the rate of drug appearance in mesenteric blood; and {C} is the logarithmic mean concentration of drug in the lumen.

- Metabolism rate [1]: 79.6 ± 6.5 nmol/min/mg
- AUC(0-t) ([2]; Control (normal) rats): 5220 ± 1430 ng·h/mL
- Cmax ([2]; Control (normal) rats): 182 ± 103 ng/mL
- half-life ([2]; Control (normal) rats): 15.4 ± 2.52 h
- CL/F ([2]; Control (normal) rats): 54.3 mL/min/kg
- MRT last ([2]; Control (normal) rats): 16.5 ± 0.94 h
- Tmax ([2]; Control (normal) rats): 6.4 ± 0.89 h
- Papp A→B at 2 h, 5 μM ([3]; 5 μM): 1.17 ± 0.16 ×10⁻⁶ cm/s
- Papp B→A at 2 h, 5 μM ([3]; 5 μM): 1.32 ± 0.14 ×10⁻⁶ cm/s
- efflux ratio at 2 h, 5 μM ([3]; 5 μM, ER = Papp (BL → AP)/Papp(AP → BL)): 1.13
- Papp A→B at 2 h, 10 μM ([3]; 10 μM): 1.18 ± 0.09 ×10⁻⁶ cm/s
- Papp B→A at 2 h, 10 μM ([3]; 10 μM): 1.34 ± 0.11 ×10⁻⁶ cm/s
- efflux ratio at 2 h, 10 μM ([3]; 10 μM, ER = Papp (BL → AP)/Papp(AP → BL)): 1.14
- Papp A→B at 2 h, 50 μM ([3]; 50 μM): 1.22 ± 0.16 ×10⁻⁶ cm/s
- Papp B→A at 2 h, 50 μM ([3]; 50 μM): 1.32 ± 0.2 ×10⁻⁶ cm/s
- efflux ratio at 2 h, 50 μM ([3]; 50 μM, ER = Papp (BL → AP)/Papp(AP → BL)): 1.08
- AUC at 10 μM ([4]; pH 7.4, Control rats): 3190 ± 70 ng·h/mL
- Total amount of analyte in bile (rat liver; Control rats): 1.37 ± 0.14 µg
- Total amount of analyte in liver (rat liver; Control rats): 11.10 ± 1.31 µg
- Metabolism rate [5]: 194.1 ± 12.9 nmol/min/mg
- Perfusate (Percent of the initial dose) ([6]; Control rats): 92.57 ± 1.67% of the initial dose
- Plasma (Percent of the initial dose) ([6]; Control rats): 0.84 ± 0.09% of the initial dose
- Intestine (Percent of the initial dose) ([6]; Control rats): 1.66 ± 0.27% of the initial dose
- Pblood ([6]; Control rats): 0.052 ± 0.009 × 10^−4 cm/s
- Plumen ([6]; Control rats): 2.543 ± 0.174 × 10^−4 cm/s
- Increase of remaining amount in perfusate ([6]; intestinal autoperfusion (60 min), CCl4-treated rats vs control): not changed
SMILES: COc1cc2c(c(OC)c1OC)-c1c(cc3c(c1OC)OCO3)C[C@H](C)[C@H](C)C2 [γ-Schisandrin, γ-schisandrin]
- Reduction of systemic clearance (CLz/F) ([2]; CCl4 intoxicated rats vs control rats): ~54%
- AUC(0-t) ([2]; CCl4-intoxicated rats): 11600 ± 3090 ng·h/mL
- Cmax ([2]; CCl4-intoxicated rats): 628 ± 164 ng/mL
- half-life ([2]; CCl4-intoxicated rats): 14.5 ± 5.05 h
- CL/F ([2]; CCl4-intoxicated rats): 25.2 mL/min/kg
- MRT last ([2]; CCl4-intoxicated rats): 15.9 ± 1.24 h
- Tmax ([2]; CCl4-intoxicated rats): 4.2 ± 1.79 h
- AUC at 10 μM ([4]; pH 7.4, CCl4-intoxicated rats): 3740 ± 70 ng·h/mL
- Total amount of analyte in bile (rat liver; CCl4-intoxicated rats): 1.19 ± 0.28 µg
- Total amount of analyte in liver (rat liver; CCl4-intoxicated rats): 14.25 ± 1.36 µg
- Perfusate (Percent of the initial dose) ([6]; CCl4-intoxicated rats): 91.92 ± 1.69% of the initial dose
- Plasma (Percent of the initial dose) ([6]; CCl4-intoxicated rats): 0.82 ± 0.06% of the initial dose
- Intestine (Percent of the initial dose) ([6]; CCl4-intoxicated rats): 1.87 ± 0.20% of the initial dose
- Pblood ([6]; CCl4-intoxicated rats): 0.066 ± 0.018 × 10^−4 cm/s
- Plumen ([6]; CCl4-intoxicated rats): 2.540 ± 0.423 × 10^−4 cm/s

— PMC5861220, “The Cytochrome P450-Mediated Metabolism Alternation of Four Effective Lignans From Schisandra chinensis in Carbon Tetrachloride-Intoxicated Rats and Patients With Advanced Hepatocellular Carcinoma” (Frontiers in Pharmacology, 2018)
